How the values were obtained:
[1] = Microsomal stability assay in liver microsomes; format: in vitro ADME, Sprague-Dawley rats; conditions: 10 μM, rat liver microsomes
Description: For Compound 10, the metabolic stability in liver microsomes as shown in Table 4 was determined by the following assay. The test compound was dissolved in DMSO (1 mM). The solubilized test compound (5 μL, final concentration 10 μM) was preincubated at 37° C. in 432 μL of phosphate buffer (0.1 M, pH=7.4) together with 50 μL of NADPH regenerating system (30 mM glucose-6-phosphate, 4 U/mL glucose 6-phosphate dehydrogenase, 10 mM NADP, 30 mM MgCl2). After 5 min, the reaction was started by the addition of 13 μL of microsome mix from the liver of Sprague-Dawley rats (Invitrogen; 20 mg protein/mL in 0.1 M phosphate buffer) in a shaking water bath at 37° C. The reaction was stopped by adding 500 μL of ice-cold methanol at 0, 15, 30, and 60 min. The samples were centrifuged at 5000×g for 5 min at 4° C., and the test compound was quantified from the supernatants by HPLC: the composition of the mobile phase was adapted to the test compound in a range of MeOH 40-90% and water (0.1% formic acid) 10-60%. Flow rate: 1 mL/min; stationary phase: Purospher STAR, RP18, 5 μm, 125×4; precolumn: Purospher STAR, RP18, 5 μm, 4×4; detection wavelength: 254 and 280 nm; injection volume: 50 μL. Control samples were performed to check the test compound's stability in the reaction mixture. First control was without NADPH, which is needed for the enzymatic activity of the microsomes, second control was with inactivated microsomes (incubated for 20 min at 90° C.), and third control was without the test compound (to determine the baseline). The amounts of the test compound were quantified by an external calibration curve. Data are expressed as the mean±SEM remaining compound from three independent experiments. In vitro half-life was calculated by a logarithmic-linear transformation of the remaining amounts of nonmetabolized test compound versus time.

[2] = tested on: chloroquine-induced scratching behavior of mice; assay: Chloroquine-induced itch model, topical application of creme; format: in vivo; conditions: 5% in hydrophilic creme (Basiscreme DAC), topical 30 min prior to s.c. chloroquine
Description: Animals: Experiments were performed in 8-16 week-old C57BL/6N mice (Charles River, Sulzfeld, Germany) of either sex. The animals were housed under a 12 h light/dark cycle with access to food and water ad libitum. All experiments adhered to the Animal Research: Reporting on In Vivo Experiments (ARRIVE) guidelines and were approved by and conducted in accordance with the regulations of the local Animal Welfare authorities (Regierungspräsidium Darmstadt, Germany; approval number V54-19c20/15-FR/2011). All behavioral studies were conducted during the light cycle of the day at room temperature (20-24° C.) by an observer blinded for the treatment of the animals.
Drug formulation: A creme formulation of Compound 6 and Compound 21 was prepared by mixing a hydrophilic creme (Basiscreme DAC) with 5% of each Slack activator.
Behavioral assessment: Three to four days before the day of the experiment, the fur on the dorsolateral aspect of the neck was shaved under brief isoflurane anesthesia. On the testing day, Compound 6 creme, Compound 21 creme, or creme vehicle were applied topically on the shaved region of the neck under brief isoflurane anesthesia and the mice were habituated to a Plexiglas cylinder (30 cm in diameter) for 30 min immediately thereafter. […] The number of scratching bouts directed towards the nape of the neck was assessed over 30 min by videotaping.

IB4-binding DRG neurons = assay: Whole-cell current-clamp recordings on IB4-binding DRG neurons; format: cell-based, mice; conditions: 50 μM
Description: A DRG neuron primary cell culture was prepared and stimulated with an inflammatory soup overnight to induce hyperexcitability. In brief, naïve C57BL/6N mice (age 4-8 weeks) were killed by CO2 inhalation and lumbar (L1-L5) DRGs were transferred to hanks' balanced salt solution (Gibco, Thermo Fisher Scientific). After incubation with 500 U/mL collagenase IV and 2.5 U/ml dispase II (both from Sigma Aldrich) for 60 min, including carefully shaking every 20 min, DRGs were washed and gently triturated twice with a fire-polished Pasteur pipette in neurobasal medium (Gibco, Thermo Fisher Scientific) including 10% FBS and 0.5 mM GlutMax (Gibco, Thermo Fisher Scientific). Dissociated DRGs were seeded onto poly-D-lysine-coated (100 μg/mL) coverslips and cultured in neurobasal medium supplemented with 2% B27 (Gibco, Thermo Fisher Scientific), 1% penicillin/streptomycin and 0.5 mM GlutMax in 5% CO2 at 37° C.
In order to simulate a pathological state, DRG neuronal cultures were incubated with an inflammatory soup (histamine: 10 μM, PGE2: 10 μM, serotonin: 10 μM, bradykinin: 10 μM)^33 overnight and performed recordings on cells that bind isolectin B4, a marker of nonpeptidergic C-fiber neurons including the itch-sensitive neuronal populations (NP1-NP3)^4 in mice. Before recording, DRG neurons were preincubated with 10 μg/mL FITC-conjugated IB4 (Sigma-Aldrich) for 5-10 min to select for Slack-expressing neurons.
Whole-cell current clamp recordings were obtained using an EPC 9 amplifier combined with Patchmaster software (HEKA Electronics, Lambrecht/Pfalz, Germany). General settings, pipette and extracellular solutions were used as described above. Evoked action potentials (AP) were elicited by 10 ms current injections starting at 0 pA in 20 pA increments to determine electrophysiological parameters. Action potential (AP) firing was induced by depolarizing current pulses (200-950 pA at 150 pA intervals, 1000 ms duration). […] Number of APs before and after compound application were counted at the same current injection step.

[3] = tested on: heart rate and breath rate of mice; assay: Pulse oximetry on conscious, freely moving mice; format: in vivo; conditions: 10 mg/kg i.p., observation period of 30 min
Description: Finally, potential side effects of Compound 6 were assessed by measuring cardiovascular functions by pulse oximetry.

Na+ channel = assay: SafetyScreen44 binding; set-up: species or system rat; conditions: 10 μM; substantial = higher than 50%
[4] = injection of small currents (0-220 pA)

Question: Which “Metabolic stability (remaining compound)” value ([1]; 15 min) does the source give for `O=c1nc(CN2CCN(C3=Nc4ccccc4Oc4ccc(Cl)cc43)CC2)[nH][nH]1` [Compound 10, 5-((4-(2-Chlorodibenzo[b,f][1,4]oxazepin-11-yl)piperazin-1-yl)methyl)-1,2-dihydro-3H-1,2,4-triazol-3-one] here?
Answer: Its value is 55%.

Question: What about the “Metabolic stability (remaining compound)” value ([1]; 30 min) of the same compound?
Answer: Its value is 35%.

Question: What about the “Metabolic stability (remaining compound)” value ([1]; 60 min) of the same compound?
Answer: Its value is 16%.

Question: Which results are given for `O=C(O)COCCN1CCN(C2=Nc3ccccc3Oc3ccc(Cl)cc32)CC1` [Compound 6, 2-(2-(4-(2-Chlorodibenzo[b,f][1,4]oxazepin-11-yl)piperazin-1-yl)ethoxy) acetic acid]?
Answer: chloroquine-induced scratching behavior after topical application [2]: significantly ameliorated scratching behavior; number of AP fired (IB4-binding DRG neurons; current injections 200-950 pA, inflammatory soup overnight): profound decrease; AP amplitude (IB4-binding DRG neurons; [4]): significantly lower; rheobase (IB4-binding DRG neurons; [4]): significantly increased; breath rate [3]: did neither affect; heart rate [3]: did neither affect

Question: For `CN1CCN(C2=Nc3ccccc3Oc3ccc(Cl)cc32)CC1` [Loxapine, 2-chloro-11-(4-methylpiperazin-1-yl)dibenzo[b,f][1,4]oxazepine, reference compound], which “binding inhibition, Na+ channel” value (Na+ channel) is on record?
Answer: Its value is “higher than 50%”.

Reference: patent US20260258003A1, “SLACK-ACTIVATING COMPOUNDS AND THEIR MEDICAL USE” (Johann Wolfgang Goethe-Universität Frankfurt am Main, priority 2023, published 2026)
